Results as given in US20250368638A1, “BICYCLIC INHIBITORS OF NICOTINAMIDE […], COMPOSITIONS AND USES THEREOF” (President and Fellows of Harvard College, priority 2021, published 2025).
“And” between values parts separate entries of the source, which are not always exact repeats. Identical values can stand only once.

Columns and labels:
recombinant human NNMT = molecular target: T1, recombinant human NNMT (Homo sapiens, UniProt P40261); test: in vitro NNMT enzyme inhibition assay (Promega MTase-Glo Methyltransferase Assay); assay type: biochemical; conditions: 40 nM recombinant human NNMT, 8 μM nicotinamide, 6.7 μM SAM, 20 minutes
T1 sequence (P40261 1-264): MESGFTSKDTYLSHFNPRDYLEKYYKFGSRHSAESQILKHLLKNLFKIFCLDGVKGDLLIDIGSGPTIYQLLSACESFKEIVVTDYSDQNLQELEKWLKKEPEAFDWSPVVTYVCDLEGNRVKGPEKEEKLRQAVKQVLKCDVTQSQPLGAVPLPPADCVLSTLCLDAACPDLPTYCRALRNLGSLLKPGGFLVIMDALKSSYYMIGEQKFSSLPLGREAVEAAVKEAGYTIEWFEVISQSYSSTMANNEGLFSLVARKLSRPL
Procedure: NNMT biochemical activity for was evaluated using the Promega Mtase-Glo Methyltransferase Assay kit. Assays were performed in a white, flat-bottomed 96 well plate. […] Reactions were performed for 20 minutes at room temperature. MTase-Glo reagent and MTase-Glo detection solution were added according to manufacturer's instructions and luminescence signal measured with a SpectraMax i3 plate reader and data analyzed with GraphPad Prism version 9. Scheme 16 depicts a visual summary of the Promega MTase-Glo Methyltransferase assay used to assess biochemical activity of novel inhibitors.

K562 (ATCC) cells = test: Cellular potency: 1-MNA levels in K562 cells after compound incubation; assay type: cell-based; conditions: Homo sapiens, 24 h incubation
Procedure: Cellular potency was measured in K562 (ATCC) cells via measuring (1-methyl nicotinamide) 1-MNA levels after compound incubation at varying concentrations overnight. Cells were plated at 1 million per well and were incubated for 24 h with compounds at indicated concentrations. Cells were collected by pipetting and extracted with 200 ul acetonitrile containing internal deuterated standard 10 ng/ml d4-1-MNA. Samples were analyzed on an Agilent 64-60 Triple Quad LC/MS with Agilent 1290 Infinity HPLC using a Restek Allure 5 um PPFP column 150 mm×2.1. The mobile phase A was 2.5 mM ammonium formate in water, and mobile phase B was methanol with 0.1% formic acid, delivered at 0.25 mL/min. The capillary voltage was set to 2400V and the nozzle at 300V. The drying gas temperature was 240° C., the drying gas flow rate was 4 L/min, and the nebulizer pressure was 40 psi. The mass spectrometer was run in multiple reaction monitoring mode. Mass transitions were m/z 137.1 à 94.1 for 1-MNA and m/z 141.1 à 98.1 for d4-MNA.

[1] = test system: CYP1A2, CYP2A6, CYP2B6, CYP2C8, CYP2C9, CYP2C19, CYP2D6, CYP2E and CYP3A4; test: CYP inhibition studies in human liver microsomes; assay type: in vitro ADME; conditions: up to 100 μM
Procedure: 1. 1 μL of multiple concentrations of test compound or positive control compound (CYP1A2: furafylline, CYP2A6: tranylcypromine, CYP2B6: ketoconazole, CYP2C8: quercetin, CYP2C9: sulfaphenazole, CYP2C19: N-3-benzylnirvanol, CYP2D6: quinidine, CYP2E1: disulfiram and CYP3A4: ketoconazole) was transferred to the “Compound Plate”. The concentrations of test compounds were 0, 0.6, 2, 6, 20, 60, 2000, 6000 and 20000 μM. The concentrations of positive control compounds were 0, 0.2, 1, 2, 10, 50, 200, 2000 and 10000 μM.
2. The master solution was prepared according to the Table 9A and 9B, and pre-warmed in the water bath at 37° C. for 5 minutes. 179 μL of master solutions were transferred to “Incubation Plate”. In the mixed system, the final concentrations of test compound were 0, 0.003, 0.01, 0.03, 0.1, 0.3, 10, 30 & 100 μM, and the final concentrations of positive control compound were 0, 0.001, 0.005, 0.01, 0.05, 0.25, 1, 10 & 50 μM. All experiments were performed in duplicate.
3. The reaction was started with the addition of 20 μL of 10 mM NADPH solution at the final concentration of 1 mM and carried out at 37° C.
4. […]
5. […] The formation of metabolites was analyzed by using LC-MS/MS. […]
6. […] The formation of metabolites were analyzed by using LC-MS/MS. […] The IC50 shift was calculated for evaluating the mechanism of the inhibition.

[2] = test system: Ion Channels, GPCR, Transporter, Kinases, Enzyme and Nuclear Hormone Receptor; test: Off-target safety panel screening; conditions: at 10 μM
Procedure: An off-target safety panel screening for 11 was conducted. The class of target teste included Ion Channels, GPCR, Transporter, Kinases, Enzyme and Nuclear Hormone Receptor.

C[C@@H]1Cc2cc(C(N)=O)cnc2N1 [Compound 11, (2R)-2-methyl-2,3-dihydro-1H-pyrrolo[2,3-b]pyridine-5-carboxamide]
IC50 (recombinant human NNMT): 35 nM and 35 to 42 nM | IC50 (K562 (ATCC) cells): 38 nM | Inhibition of CYP isoforms [1]: did not inhibit | Off-target activity [2]: did not show significant off-target activity
